Legend:
Hela S3 cells = test: Growth inhibitory activity against Hela S3 cells; format: cell-based; conditions: Cu-free form; Hela S3, 3 days incubation with compound
Protocol: The percentage growth inhibition was calculated using the equation: […] wherein A is the ultimate number of cells on the third day from the addition of a test sample, B is the ultimate number of cells in the control (without the addition of test sample), and C is the number of cells on the day of addition of the test sample.

Bacillus subtilis = test: Antimicrobial activity, agar plate-cylinder method; format: cell-based; conditions: Cu-free form; bleomycin A2 (Cu-free form) standard assumed 1,000 mcg/mg
Protocol: (1) Antimicrobial activity against Mycobacterium smegmatis ATCC 697 and Bacillus subtilis.
(§1) The activity was assayed against the above test microorganisms by the method of agar plate-cylinder, assuming the potency of bleomycin A2 (Cu-free form), used as standard, to be 1,000 mcg/mg.

[1] = system: Mycobacterium smegmatis ATCC 607; test: Antimicrobial activity, agar plate-cylinder method; format: cell-based; conditions: Cu-free form; bleomycin A2 (Cu-free form) standard assumed 1,000 mcg/mg
Protocol: as §1

ICR strain mice = test: Pulmonary toxicity (pulmonary fibrosis) in mice, intraperitoneal injection; format: in vivo; conditions: 5 mg/kg i.p. once a day for 10 days; for Grade of pulmonary fibrosis, % / Incidence of pulmonary fibrosis, % / Incidence: number of mice suffering from pulmonary fibrosis / Grade: total score of pulmonary fibrosis/total number of test animal: autopsy after 5 weeks; for Incidence: number of mice suffering from pulmonary fibrosis: affected/total mice; for Grade: total score of pulmonary fibrosis/total number of test animal: score 0-6 points; for Grade of pulmonary fibrosis, Ratio / Incidence of pulmonary fibrosis, Ratio: reference of the ratio not stated
Protocol: (3) Pulmonary toxicity (pulmonary fibrosis) in mice.
ICR strain mice (male; 15 weeks old; 9 mice per group) were used. Each mouse was administered with a daily dose of 5 mg/kg of the test sample by intraperitoneal injection, once a day, for 10 consecutive days. After completion of the predetermined administration, the mice were kept for 5 weeks under observation, then slaughtered, and autopsied to examine the incidence and grade of pulmonary fibrosis. The evaluation was made by comparing the number of administered mice suffering from pulmonary fibrosis and the grade of the disease.
(§2) In Tables 4A and 4B, the grade was numerically rated as follows:
(§3) 1 point: Accumulation of exudate in pulmonary alveoli and fibrosis-like change in alveolar septum.
(§4) 2 points: Fibrosis in several areas.
(§5) 4 points: Scattered fibrosis.
(§6) 6 points: Fibrosis in more than two-thirds of the total area.

ICR mice = test: Pulmonary toxicity (pulmonary fibrosis) in mice, intratracheal instillation; format: in vivo; conditions: 16 μg/50 μl/mouse intratracheally, sacrificed 4 weeks after instillation; for Grade: total score of pulmonary fibrosis/total number of samples: score 0-6 points
Protocol: Male 15 weeks old ICR mice were used. Sixteen μg/50 μl/mouse of each test sample was intratracheally instilled. The mice were sacrificed 4 weeks after instillation to examine the incidence and grade of pulmonary fibrosis. The evaluation was made by comparing the number of administered mice suffering from pulmonary fibrosis and the grade of the disease.
as §2, §3, §4, §5, §6

SMILES | 50% growth inhibition concentration (ID50) of Cu--free compound against cultured Hela cell (Hela S3 cells) [µg/mL] | Antimicrobial potency of Cu--free compound, against Bacillus subtilis (Bacillus subtilis) [mcg potency per mg] | Antimicrobial potency of Cu--free compound, against Mycobacterium smegmatis ATCC 607 [1] [mcg potency per mg] | Grade of pulmonary fibrosis, % (ICR strain mice) [%] | Incidence of pulmonary fibrosis, % (ICR strain mice) [%] | Incidence: number of mice suffering from pulmonary fibrosis (ICR strain mice) | Grade: total score of pulmonary fibrosis/total number of test animal (ICR strain mice) | Grade of pulmonary fibrosis, Ratio (ICR strain mice) | Incidence of pulmonary fibrosis, Ratio (ICR strain mice) | Grade of pulmonary fibrosis, % (ICR mice) [%] | Incidence of pulmonary fibrosis, % (ICR mice) [%] | Incidence: number of mice with pulmonary fibrosis/number of mice (ICR mice) | Grade: total score of pulmonary fibrosis/total number of samples (ICR mice)
Cc1c(N)nc(C(CC(N)=O)NCC(N)C(N)=O)nc1C(=O)NC(C(=O)NC(C)C(O)C(C)C(=O)NC(C(=O)NCCc1nc(-c2nc(C(=O)NCCCN(C)CCCNCC3CCCCCC3)cs2)cs1)C(C)O)C(OC1OC(CO)C(O)C(O)C1OC1OC(CO)C(O)C(OC(N)=O)C1O)c1cnc[nH]1 (stereo not drawn) [compound 31, 3-{N--Methyl-N--[3'-(cycloheptylmethylamino)propyl]amino}propylaminoBLM] | 0.48 | 20143 | 25924 | – | – | – | – | – | – | – | – | – | –
Cc1c(N)nc(C(CC(N)=O)NCC(N)C(N)=O)nc1C(=O)NC(C(=O)NC(C)C(O)C(C)C(=O)NC(C(=O)NCCc1nc(-c2nc(C(=O)NCCCN(C)CCCN(Cc3ccc(OCC4CCCCCCC4)cc3)Cc3ccc(OCC4CCCCCCC4)cc3)cs2)cs1)C(C)O)C(OC1OC(CO)C(O)C(O)C1OC1OC(CO)C(O)C(OC(N)=O)C1O)c1cnc[nH]1 (stereo not drawn) [compound 52, 3-{N--Methyl-N--[3'-(bis(p-cyclooctylmethyloxybenzyl)amino)propyl)amino}propylaminoBLM] | 0.13 | 49 | 268 | 0 | 0 | 0/9 | 0/27 | 0.00 | 0.00 | – | – | – | –
Cc1c(N)nc(C(CC(N)=O)NCC(N)C(N)=O)nc1C(=O)NC(C(=O)NC(C)C(O)C(C)C(=O)NC(C(=O)NCCc1nc(-c2nc(C(=O)NCCCNCCCNC(C)c3ccccc3)cs2)cs1)C(C)O)C(OC1OC(CO)C(O)C(O)C1OC1OC(CO)C(O)C(OC(N)=O)C1O)c1cnc[nH]1 (stereo not drawn) [PEPP, 3-[3-(N-1-phenylethyl)aminopropyl]aminopropylamino-bleomycin, reference compound] | – | – | – | – | – | – | – | – | – | 56 | 89 | 8/9 | 15/27
Cc1c(N)nc(C(CC(N)=O)NCC(N)C(N)=O)nc1C(=O)NC(C(=O)NC(C)C(O)C(C)C(=O)NC(C(=O)NCCc1nc(-c2nc(C(=O)NCCCN(C)CCCNCc3ccc([N+](=O)[O-])cc3)cs2)cs1)C(C)O)C(OC1OC(CO)C(O)C(O)C1OC1OC(CO)C(O)C(OC(N)=O)C1O)c1cnc[nH]1 (stereo not drawn) [MNBZ, 3-(N-methyl-N-3-p-nitro-benzylamino-propyl)aminopropylamino-bleomycin, reference compound] | – | – | – | – | – | – | – | – | – | 104 | 89 | 8/9 | 28/27
Cc1c(N)nc(C(CC(N)=O)NCC(N)C(N)=O)nc1C(=O)NC(C(=O)NC(C)C(O)C(C)C(=O)NC(C(=O)NCCc1nc(-c2nc(C(=O)NCCCN(C)CCCNCCc3ccc(Cl)cc3)cs2)cs1)C(C)O)C(OC1OC(CO)C(O)C(O)C1OC1OC(CO)C(O)C(OC(N)=O)C1O)c1cnc[nH]1 (stereo not drawn) [compound 1, 3-{N--Methyl-N--[3'-(2"-p-chlorophenylethylamino)propyl]amino}propylaminoBLM] | 0.54 | 13266 | 16800 | 11 | 22 | 2/9 | 3/27 | 0.13 | 0.35 | – | – | – | –
Cc1c(N)nc(C(CC(N)=O)NCC(N)C(N)=O)nc1C(=O)NC(C(=O)NC(C)C(O)C(C)C(=O)NC(C(=O)NCCc1nc(-c2nc(C(=O)NCCCN(C)CCCN(Cc3cc(OCc4ccccc4)c(OCc4ccccc4)c(OCc4ccccc4)c3)Cc3cc(OCc4ccccc4)c(OCc4ccccc4)c(OCc4ccccc4)c3)cs2)cs1)C(C)O)C(OC1OC(CO)C(O)C(O)C1OC1OC(CO)C(O)C(OC(N)=O)C1O)c1cnc[nH]1 (stereo not drawn) [compound 53, 3-{N--Methyl-N--[3'-(bis(3",4",5"-tribenzyloxybenzyl)amino)propyl]amino}propylaminoBLM] | 0.062 | 26 | 11 | 0 | 0 | 0/9 | 0/27 | 0.00 | 0.00 | – | – | – | –
Cc1c(N)nc(C(CC(N)=O)NCC(N)C(N)=O)nc1C(=O)NC(C(=O)NC(C)C(O)C(C)C(=O)NC(C(=O)NCCc1nc(-c2nc(C(=O)NCCCNC(C)c3ccccc3)cs2)cs1)C(C)O)C(OC1OC(CO)C(O)C(O)C1OC1OC(CO)C(O)C(OC(N)=O)C1O)c1c[nH]cn1 [PEP, 3-[(S)-1'-phenylethylamino]propylamino-bleomycin, reference compound] | – | – | – | – | – | – | – | – | – | 150 | 75 | 6/8 | 36/24
Cc1c(N)nc(C(CC(N)=O)NCC(N)C(N)=O)nc1C(=O)NC(C(=O)NC(C)C(O)C(C)C(=O)NC(C(=O)NCCc1nc(-c2nc(C(=O)NCCCN(C)CCCNCC3CCCC3)cs2)cs1)C(C)O)C(OC1OC(CO)C(O)C(O)C1OC1OC(CO)C(O)C(OC(N)=O)C1O)c1cnc[nH]1 (stereo not drawn) [compound 28, 3-{N--Methyl-N--[3'-(cyclopentylmethylamino)propyl]amino}propylaminoBLM] | 1.00 | 16180 | 13595 | – | – | – | – | – | – | – | – | – | –
Cc1c(N)nc(C(CC(N)=O)NCC(N)C(N)=O)nc1C(=O)NC(C(=O)NC(C)C(O)C(C)C(=O)NC(C(=O)NCCc1nc(-c2nc(C(=O)NCCCN(C)CCCNCCC3CCCCC3)cs2)cs1)C(C)O)C(OC1OC(CO)C(O)C(O)C1OC1OC(CO)C(O)C(OC(N)=O)C1O)c1cnc[nH]1 (stereo not drawn) [compound 30, 3-{N--Methyl-N--[3'-(cyclohexylethylamino)propyl]amino}propylaminoBLM] | 0.56 | 14440 | 35030 | – | – | – | – | – | – | – | – | – | –
Cc1c(N)nc(C(CC(N)=O)NCC(N)C(N)=O)nc1C(=O)NC(C(=O)NC(C)C(O)C(C)C(=O)NC(C(=O)NCCc1nc(-c2nc(C(=O)NCCCN(C)CCCNCC3CCCCC3)cs2)cs1)C(C)O)C(OC1OC(CO)C(O)C(O)C1OC1OC(CO)C(O)C(OC(N)=O)C1O)c1cnc[nH]1 (stereo not drawn) [compound 29, 3-{N--Methyl-N--[3'-(cyclohexylmethylamino)propyl]amino}propylaminoBLM] | 0.63 | 12148 | 15414 | – | – | – | – | – | – | – | – | – | –

Reference: US4568490A, “Aminopropylaminobleomycin derivatives and process for preparation thereof” (Zaidan Hojin Biseibutsu Kagaku Kenkyu Kai, priority 1981, dated 1986)
